Laboratory results as given in the kinase profiling compilation of Christmann-Franck et al. (2016).

Assays:
Assay in all cases: radiometric filter-binding kinase assay, Kinase HotSpot
Conditions in all cases: compound 0.5 µM; ATP 10 µM
FLT1 (human) = FLT1 (human) (UniProt P17948)
FLT3 (human) = FLT3 (human) (UniProt P36888)
MAPKAPK5 (human) = MAPKAPK5 (human) (UniProt Q8IW41)
NTRK3 (human) = NTRK3 (human) (UniProt Q16288)
ABL2 (human) = ABL2 (human) (UniProt P42684)
AURKB (human) = AURKB (human) (UniProt Q96GD4)
Sequence of AURKB (human) (Q96GD4 whole entry, looked up): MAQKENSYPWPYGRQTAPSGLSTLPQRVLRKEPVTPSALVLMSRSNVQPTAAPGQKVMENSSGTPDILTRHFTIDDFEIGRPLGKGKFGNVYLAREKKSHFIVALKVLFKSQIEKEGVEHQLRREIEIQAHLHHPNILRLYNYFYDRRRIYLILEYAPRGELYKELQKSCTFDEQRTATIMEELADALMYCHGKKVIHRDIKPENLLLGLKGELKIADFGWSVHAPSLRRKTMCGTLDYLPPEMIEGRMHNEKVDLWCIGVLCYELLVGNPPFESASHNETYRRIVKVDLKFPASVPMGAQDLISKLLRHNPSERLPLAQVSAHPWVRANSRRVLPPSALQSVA

EPHA2 (human) = EPHA2 (human) (UniProt P29317)
PRKCB2 (human) = PRKCB2 (human) (UniProt P05771)
TNK2 (human) = TNK2 (human) (UniProt Q07912)
MERTK (human) = MERTK (human) (UniProt Q12866)
Sequence of MERTK (human) (Q12866 whole entry, looked up): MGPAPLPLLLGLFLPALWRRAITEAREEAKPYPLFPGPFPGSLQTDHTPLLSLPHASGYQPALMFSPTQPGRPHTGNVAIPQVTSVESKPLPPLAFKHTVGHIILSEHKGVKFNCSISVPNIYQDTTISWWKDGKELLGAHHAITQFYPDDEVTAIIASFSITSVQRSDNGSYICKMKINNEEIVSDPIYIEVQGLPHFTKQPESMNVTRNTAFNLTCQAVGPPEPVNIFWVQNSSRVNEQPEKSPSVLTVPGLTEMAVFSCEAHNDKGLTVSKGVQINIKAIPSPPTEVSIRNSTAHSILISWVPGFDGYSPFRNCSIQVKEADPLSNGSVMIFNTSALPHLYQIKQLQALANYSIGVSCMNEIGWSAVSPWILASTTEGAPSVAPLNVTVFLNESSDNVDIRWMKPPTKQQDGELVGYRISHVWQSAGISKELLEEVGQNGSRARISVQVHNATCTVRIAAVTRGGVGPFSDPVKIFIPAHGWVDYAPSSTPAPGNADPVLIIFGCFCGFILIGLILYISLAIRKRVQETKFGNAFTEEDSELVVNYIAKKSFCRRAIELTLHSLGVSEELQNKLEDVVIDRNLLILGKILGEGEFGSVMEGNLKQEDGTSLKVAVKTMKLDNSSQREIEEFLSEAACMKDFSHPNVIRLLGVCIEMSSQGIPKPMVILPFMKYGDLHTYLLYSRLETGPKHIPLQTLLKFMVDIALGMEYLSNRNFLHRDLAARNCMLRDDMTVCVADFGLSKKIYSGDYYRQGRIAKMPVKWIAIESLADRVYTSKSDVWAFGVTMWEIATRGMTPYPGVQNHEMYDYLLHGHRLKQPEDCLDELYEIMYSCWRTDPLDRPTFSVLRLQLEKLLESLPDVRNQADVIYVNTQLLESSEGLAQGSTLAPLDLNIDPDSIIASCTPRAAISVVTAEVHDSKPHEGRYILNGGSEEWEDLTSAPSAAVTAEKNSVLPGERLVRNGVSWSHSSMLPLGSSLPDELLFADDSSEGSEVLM

STK4 (human) = STK4 (human) (UniProt Q13043)
PIM1 (human) = PIM1 (human) (UniProt P11309)
SRPK3 (human) = SRPK3 (human) (UniProt Q9UPE1)
Sequence of SRPK3 (human) (Q9UPE1 whole entry, looked up): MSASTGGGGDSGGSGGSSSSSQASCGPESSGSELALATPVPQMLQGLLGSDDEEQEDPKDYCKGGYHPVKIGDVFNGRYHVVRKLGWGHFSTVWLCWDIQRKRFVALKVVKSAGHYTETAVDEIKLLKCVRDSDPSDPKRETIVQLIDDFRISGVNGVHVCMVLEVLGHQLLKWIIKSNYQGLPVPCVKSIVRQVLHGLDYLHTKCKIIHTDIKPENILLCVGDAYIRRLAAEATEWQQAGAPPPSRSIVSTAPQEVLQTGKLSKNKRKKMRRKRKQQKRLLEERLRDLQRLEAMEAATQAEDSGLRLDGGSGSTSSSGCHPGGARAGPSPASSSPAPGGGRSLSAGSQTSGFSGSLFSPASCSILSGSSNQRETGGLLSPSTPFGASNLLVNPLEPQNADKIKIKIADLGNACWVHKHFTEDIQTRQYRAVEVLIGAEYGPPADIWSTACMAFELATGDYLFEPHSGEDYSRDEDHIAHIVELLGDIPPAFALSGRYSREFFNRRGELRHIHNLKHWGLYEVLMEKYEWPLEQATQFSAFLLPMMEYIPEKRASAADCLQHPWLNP

KIT (human) = KIT (human) (UniProt P10721)
Sequence of KIT (human) (P10721 whole entry, looked up): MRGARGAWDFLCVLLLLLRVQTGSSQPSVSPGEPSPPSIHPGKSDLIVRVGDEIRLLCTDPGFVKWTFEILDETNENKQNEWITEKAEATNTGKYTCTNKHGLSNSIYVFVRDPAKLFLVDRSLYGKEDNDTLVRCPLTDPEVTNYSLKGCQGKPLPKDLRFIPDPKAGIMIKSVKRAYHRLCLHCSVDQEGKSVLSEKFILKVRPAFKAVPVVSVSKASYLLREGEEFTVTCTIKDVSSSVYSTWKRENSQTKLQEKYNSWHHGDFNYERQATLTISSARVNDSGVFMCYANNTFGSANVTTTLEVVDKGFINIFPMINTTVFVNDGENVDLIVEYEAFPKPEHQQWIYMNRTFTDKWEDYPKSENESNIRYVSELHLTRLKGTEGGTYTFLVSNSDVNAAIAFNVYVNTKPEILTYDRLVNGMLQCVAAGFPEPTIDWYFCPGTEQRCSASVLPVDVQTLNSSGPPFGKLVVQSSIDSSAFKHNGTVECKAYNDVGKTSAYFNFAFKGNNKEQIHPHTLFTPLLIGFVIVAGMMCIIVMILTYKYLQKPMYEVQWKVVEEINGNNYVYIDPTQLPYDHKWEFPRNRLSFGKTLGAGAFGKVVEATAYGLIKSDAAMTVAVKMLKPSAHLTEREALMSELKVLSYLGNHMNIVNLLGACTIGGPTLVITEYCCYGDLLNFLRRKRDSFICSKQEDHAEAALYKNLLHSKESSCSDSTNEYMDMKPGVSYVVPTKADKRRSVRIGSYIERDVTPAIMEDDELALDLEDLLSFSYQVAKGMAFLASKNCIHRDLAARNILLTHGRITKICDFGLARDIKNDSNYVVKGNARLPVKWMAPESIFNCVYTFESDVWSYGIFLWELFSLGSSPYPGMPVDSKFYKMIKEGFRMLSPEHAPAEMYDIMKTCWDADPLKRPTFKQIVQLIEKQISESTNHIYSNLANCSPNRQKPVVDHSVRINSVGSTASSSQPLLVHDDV

EPHB1 (human) = EPHB1 (human) (UniProt P54762)
STK24 (human) = STK24 (human) (UniProt Q9Y6E0)
AKT1 (human) = AKT1 (human) (UniProt P31749)
MYLK (human) = MYLK (human) (UniProt Q15746)
MARK2 (human) = MARK2 (human) (UniProt Q7KZI7)
CDK9 CCNT1 (human) = CDK9 CCNT1 (human) (UniProt P50750+O60563)
Sequence of CDK9 CCNT1 (human) (O60563 whole entry, looked up): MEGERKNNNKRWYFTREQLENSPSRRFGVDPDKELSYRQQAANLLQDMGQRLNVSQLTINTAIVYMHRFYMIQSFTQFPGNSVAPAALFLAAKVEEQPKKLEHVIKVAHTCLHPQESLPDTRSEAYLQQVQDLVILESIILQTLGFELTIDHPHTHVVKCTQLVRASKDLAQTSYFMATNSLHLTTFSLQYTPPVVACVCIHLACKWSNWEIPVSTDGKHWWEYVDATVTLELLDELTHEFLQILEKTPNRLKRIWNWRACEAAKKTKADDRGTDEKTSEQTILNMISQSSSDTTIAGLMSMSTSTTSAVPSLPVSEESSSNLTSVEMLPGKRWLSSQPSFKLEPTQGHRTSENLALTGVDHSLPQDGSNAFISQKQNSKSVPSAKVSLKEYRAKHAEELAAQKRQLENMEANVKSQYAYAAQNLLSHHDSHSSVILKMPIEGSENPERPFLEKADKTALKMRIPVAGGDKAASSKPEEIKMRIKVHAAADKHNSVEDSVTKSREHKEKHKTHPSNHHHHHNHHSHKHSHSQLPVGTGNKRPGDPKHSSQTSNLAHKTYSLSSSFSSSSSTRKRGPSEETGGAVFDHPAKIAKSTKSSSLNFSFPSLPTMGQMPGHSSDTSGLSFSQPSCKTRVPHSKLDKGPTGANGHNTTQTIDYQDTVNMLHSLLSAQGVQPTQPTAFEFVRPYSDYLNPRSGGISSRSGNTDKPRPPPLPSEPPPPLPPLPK
Sequence of CDK9 CCNT1 (human) (P50750 whole entry, looked up): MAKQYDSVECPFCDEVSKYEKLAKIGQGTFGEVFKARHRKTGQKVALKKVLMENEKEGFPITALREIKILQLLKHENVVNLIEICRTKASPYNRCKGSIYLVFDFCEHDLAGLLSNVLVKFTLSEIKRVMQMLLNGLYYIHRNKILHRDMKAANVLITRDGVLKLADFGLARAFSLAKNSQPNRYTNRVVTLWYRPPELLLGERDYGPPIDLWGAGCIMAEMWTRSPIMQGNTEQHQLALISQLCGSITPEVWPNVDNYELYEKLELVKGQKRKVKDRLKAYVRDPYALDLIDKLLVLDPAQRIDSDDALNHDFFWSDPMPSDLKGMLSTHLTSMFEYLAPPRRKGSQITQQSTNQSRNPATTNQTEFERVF

CDK2 CCNE1 (human) = CDK2 CCNE1 (human) (UniProt P24941+P24864)
Sequence of CDK2 CCNE1 (human) (P24864 whole entry, looked up, other chains not shown): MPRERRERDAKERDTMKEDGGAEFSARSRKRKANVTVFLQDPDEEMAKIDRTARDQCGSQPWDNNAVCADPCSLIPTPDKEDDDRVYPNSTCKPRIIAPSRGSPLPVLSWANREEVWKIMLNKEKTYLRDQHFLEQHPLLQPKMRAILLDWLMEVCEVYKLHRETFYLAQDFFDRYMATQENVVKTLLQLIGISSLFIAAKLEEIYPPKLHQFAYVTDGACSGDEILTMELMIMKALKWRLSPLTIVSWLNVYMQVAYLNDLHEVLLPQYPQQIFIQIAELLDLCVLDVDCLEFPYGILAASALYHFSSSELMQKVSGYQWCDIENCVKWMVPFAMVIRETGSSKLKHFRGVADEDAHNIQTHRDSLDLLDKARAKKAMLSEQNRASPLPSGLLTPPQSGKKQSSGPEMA

WNK3 (human) = WNK3 (human) (UniProt Q9BYP7)
CSNK2A2 (human) = CSNK2A2 (human) (UniProt P19784)
BRSK2 (human) = BRSK2 (human) (UniProt Q8IWQ3)
GRK7 (human) = GRK7 (human) (UniProt Q8WTQ7)
NUAK1 (human) = NUAK1 (human) (UniProt O60285)
CLK4 (human) = CLK4 (human) (UniProt Q9HAZ1)
GRK5 (human) = GRK5 (human) (UniProt P34947)
HIPK3 (human) = HIPK3 (human) (UniProt Q9H422)
CSNK1E (human) = CSNK1E (human) (UniProt P49674)
ROCK2 (human) = ROCK2 (human) (UniProt O75116)
PRKACA (human) = PRKACA (human) (UniProt P17612)
CDK1 CCNA2 (human) = CDK1 CCNA2 (human) (UniProt P06493+P20248)
CSNK1G3 (human) = CSNK1G3 (human) (UniProt Q9Y6M4)
PRKCG (human) = PRKCG (human) (UniProt P05129)
CSNK1A1 (human) = CSNK1A1 (human) (UniProt P48729)
NEK2 (human) = NEK2 (human) (UniProt P51955)
ACVRL1 (human) = ACVRL1 (human) (UniProt P37023)
HIPK4 (human) = HIPK4 (human) (UniProt Q8NE63)
Sequence of HIPK4 (human) (Q8NE63 whole entry, looked up): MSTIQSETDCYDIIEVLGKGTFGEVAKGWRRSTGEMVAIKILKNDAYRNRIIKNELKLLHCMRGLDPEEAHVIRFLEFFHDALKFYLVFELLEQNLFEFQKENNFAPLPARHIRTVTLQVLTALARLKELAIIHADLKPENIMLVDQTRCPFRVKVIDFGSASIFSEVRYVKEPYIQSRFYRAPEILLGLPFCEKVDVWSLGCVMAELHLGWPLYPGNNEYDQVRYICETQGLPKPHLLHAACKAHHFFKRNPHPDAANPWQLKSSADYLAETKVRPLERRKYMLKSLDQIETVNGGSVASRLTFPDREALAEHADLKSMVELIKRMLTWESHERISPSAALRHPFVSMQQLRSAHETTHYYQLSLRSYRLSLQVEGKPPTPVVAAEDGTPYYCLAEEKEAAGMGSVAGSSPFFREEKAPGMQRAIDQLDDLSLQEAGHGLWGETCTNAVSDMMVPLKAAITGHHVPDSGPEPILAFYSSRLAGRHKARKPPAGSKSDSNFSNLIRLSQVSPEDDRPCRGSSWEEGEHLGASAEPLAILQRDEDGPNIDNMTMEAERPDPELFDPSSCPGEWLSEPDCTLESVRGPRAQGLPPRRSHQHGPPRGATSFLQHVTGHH

NLK (human) = NLK (human) (UniProt Q9UBE8)
KDR (human) = KDR (human) (UniProt P35968)
MAPK9 (human) = MAPK9 (human) (UniProt P45984)

Cc1ccc(Nc2nccc(N(C)c3ccc4c(C)n(C)nc4c3)n2)cc1S(N)(=O)=O
residual activity (FLT1 (human)): 27.2% | residual activity (FLT3 (human)): 40.7% | residual activity (MAPKAPK5 (human)): 100% | residual activity (NTRK3 (human)): 87.8% | residual activity (ABL2 (human)): 38.5% | residual activity (AURKB (human)): 64.6% | residual activity (EPHA2 (human)): 85.7% | residual activity (PRKCB2 (human)): 96.7% | residual activity (TNK2 (human)): 90.2% | residual activity (MERTK (human)): 57.2% | residual activity (STK4 (human)): 98.4% | residual activity (PIM1 (human)): 100% | residual activity (SRPK3 (human)): 102% | residual activity (KIT (human)): 10.9% | residual activity (EPHB1 (human)): 92.2% | residual activity (STK24 (human)): 106% | residual activity (AKT1 (human)): 91.2% | residual activity (MYLK (human)): 93% | residual activity (MARK2 (human)): 111% | residual activity (CDK9 CCNT1 (human)): 91.5% | residual activity (CDK2 CCNE1 (human)): 96.4% | residual activity (WNK3 (human)): 98.6% | residual activity (CSNK2A2 (human)): 99.8% | residual activity (BRSK2 (human)): 101% | residual activity (GRK7 (human)): 96.5% | residual activity (NUAK1 (human)): 53.4% | residual activity (CLK4 (human)): 91.7% | residual activity (GRK5 (human)): 99.6% | residual activity (HIPK3 (human)): 103% | residual activity (CSNK1E (human)): 97.5% | residual activity (ROCK2 (human)): 91.1% | residual activity (PRKACA (human)): 94.5% | residual activity (CDK1 CCNA2 (human)): 96.2% | residual activity (CSNK1G3 (human)): 97.1% | residual activity (PRKCG (human)): 93.5% | residual activity (CSNK1A1 (human)): 100% | residual activity (NEK2 (human)): 110% | residual activity (ACVRL1 (human)): 102% | residual activity (HIPK4 (human)): 109% | residual activity (NLK (human)): 69%

COc1cc2ncnc(Nc3cccc(Cl)c3)c2cc1OC
residual activity (FLT1 (human)): 74.4% | residual activity (FLT3 (human)): 37.6% | residual activity (MAPKAPK5 (human)): 89.5% | residual activity (NTRK3 (human)): 86.3% | residual activity (ABL2 (human)): 52.6% | residual activity (AURKB (human)): 74.4% | residual activity (EPHA2 (human)): 85.2% | residual activity (PRKCB2 (human)): 95.5% | residual activity (TNK2 (human)): 28.6% | residual activity (MERTK (human)): 76.9% | residual activity (STK4 (human)): 92% | residual activity (PIM1 (human)): 91.5% | residual activity (SRPK3 (human)): 90.1% | residual activity (KIT (human)): 94% | residual activity (EPHB1 (human)): 82.8% | residual activity (STK24 (human)): 96.8% | residual activity (AKT1 (human)): 89.9% | residual activity (MYLK (human)): 89% | residual activity (CDK9 CCNT1 (human)): 85.1% | residual activity (KDR (human)): 74.7% | residual activity (CDK2 CCNE1 (human)): 90.4% | residual activity (WNK3 (human)): 97.8% | residual activity (CSNK2A2 (human)): 92.3% | residual activity (BRSK2 (human)): 96.7% | residual activity (GRK7 (human)): 85.4% | residual activity (NUAK1 (human)): 75.8% | residual activity (CLK4 (human)): 98.2% | residual activity (GRK5 (human)): 105% | residual activity (HIPK3 (human)): 98.9% | residual activity (CSNK1E (human)): 75.3% | residual activity (ROCK2 (human)): 92.6% | residual activity (PRKACA (human)): 98.6% | residual activity (CDK1 CCNA2 (human)): 94.9% | residual activity (CSNK1G3 (human)): 92.4% | residual activity (MAPK9 (human)): 92.2% | residual activity (PRKCG (human)): 105% | residual activity (CSNK1A1 (human)): 92.5% | residual activity (NEK2 (human)): 88.3% | residual activity (ACVRL1 (human)): 96.4% | residual activity (HIPK4 (human)): 64.4% | residual activity (NLK (human)): 83.1%

Nc1ncnc2[nH]nc(Nc3ccc(F)cc3)c12
residual activity (FLT1 (human)): 87.3% | residual activity (FLT3 (human)): 78.3% | residual activity (MAPKAPK5 (human)): 80.9% | residual activity (NTRK3 (human)): 81.5% | residual activity (ABL2 (human)): 82.3% | residual activity (AURKB (human)): 96.9% | residual activity (EPHA2 (human)): 89.9% | residual activity (PRKCB2 (human)): 105% | residual activity (TNK2 (human)): 61.5% | residual activity (MERTK (human)): 90.7% | residual activity (STK4 (human)): 90.4% | residual activity (PIM1 (human)): 95.5% | residual activity (SRPK3 (human)): 91.5% | residual activity (KIT (human)): 93.5% | residual activity (STK24 (human)): 81.6% | residual activity (AKT1 (human)): 93.3% | residual activity (MYLK (human)): 94.7% | residual activity (MARK2 (human)): 87% | residual activity (CDK9 CCNT1 (human)): 99.1% | residual activity (KDR (human)): 104% | residual activity (CDK2 CCNE1 (human)): 90.3% | residual activity (WNK3 (human)): 103% | residual activity (BRSK2 (human)): 60.6% | residual activity (GRK7 (human)): 105% | residual activity (NUAK1 (human)): 95.5% | residual activity (CLK4 (human)): 88.7% | residual activity (GRK5 (human)): 97.1% | residual activity (HIPK3 (human)): 101% | residual activity (CSNK1E (human)): 80.5% | residual activity (ROCK2 (human)): 92.1% | residual activity (PRKACA (human)): 96.8% | residual activity (CDK1 CCNA2 (human)): 93% | residual activity (CSNK1G3 (human)): 97.9% | residual activity (MAPK9 (human)): 103% | residual activity (PRKCG (human)): 96% | residual activity (CSNK1A1 (human)): 90.3% | residual activity (NEK2 (human)): 89.3% | residual activity (ACVRL1 (human)): 108% | residual activity (HIPK4 (human)): 98.5% | residual activity (NLK (human)): 95.4%
